One may read the EC50 as the concentration at which the effect is half-maximal.

Structures are written as SMILES.

These results are taken from PMC11279465, “Dual Inhibitors of P-gp and Carbonic Anhydrase XII (hCA XII) against Tumor Multidrug Resistance with Piperazine Scaffold” (Molecules, 2024).

The target in assay [1] is P-gp (Homo sapiens, UniProt P08183). Put plainly: Calcein-AM transport inhibition in MDCK-MDR1 cells. It counts as cell-based. Details: expressed in transfected cells; host or cells: MDCK (Madin-Darby Canine Kidney). As to conditions: mean ± SEM. The text has this: The MDR interaction potency of these compounds was studied by detecting the inhibition of the P-gp-, MRP1- or BCRP-mediated efflux of a substrate in cells overexpressing the studied pumps. In detail, we measured the following: (i) the transport inhibition of the profluorescent probe calcein-AM (P-gp and MRP1 substrate) in MDCK-MDR1 and MDCK-MRP1 cells (P-gp- and MRP1-overexpressing cells, respectively); (ii) the transport inhibition of the fluorescent probe Hoechst 33342 (BCRP substrate) in MDCK-BCRP cells (BCRP-overexpressing cells).
Experiments were performed as previously described. MDCK-MDR1 and MDCK-MRP1 cells (30,000 cells per well) were seeded in a 96-well black CulturePlate in 100 µL of medium and allowed to grow overnight in a humidified atmosphere of 5% CO2 at 37 °C. Tested compounds (100 µL) in a final concentration ranging between 0.01 nM and 100 µM, solubilized in culture medium, were added to the monolayers. After 30 min in a humidified atmosphere of 5% CO2 at 37 °C, 100 µL of Calcein-AM in phosphate-buffered saline (PBS) was added to obtain a final concentration of 2.5 µM and the plate was incubated for 30 min. All wells were washed 3 times with 100 µL ice-cold PBS and read with Victor3 (PerkinElmer) after adding 100 µL of cold PBS. Excitation and emission wavelengths of 485 nm and 535 nm, respectively, were used. In these experimental conditions, cell Calcein-AM accumulation in the absence and in the presence of each tested compound was evaluated and compared to the basal level of fluorescence derived from untreated cells. The increase in fluorescence from the baseline level was measured in the treated wells. EC50 values were determined by fitting the rate of fluorescence increase versus log[dose].

The test system of assay [2] is K562/DOX cells. Briefly: Intrinsic cytotoxicity (MTT). The settings on record: compound alone at 3 µM, 72 h. It counts as cell-based, human. As for the experimental part: Compounds were first studied at 1 and 3 µM concentrations to evaluate their intrinsic cytotoxicity in both the parental K562 and the resistant K562/DOX cell lines, using the MTT assay. All compounds had no intrinsic cytotoxicity in the parental line.
The intrinsic toxicity of the studied compounds was determined by an MTT assay. K562 and K562/DOX were exposed for 72 h with compounds at 1 and 3 µM concentrations while HT29, A549, HT29/DOX and A549/DOX cells were incubated for 48 h with compounds used at different concentrations (from 10 nM to 50 µM). The percentage of growth compared to the untreated control was transformed into histograms with the GraphPad Prism 5 program.

Chain of P-gp (P08183 whole entry): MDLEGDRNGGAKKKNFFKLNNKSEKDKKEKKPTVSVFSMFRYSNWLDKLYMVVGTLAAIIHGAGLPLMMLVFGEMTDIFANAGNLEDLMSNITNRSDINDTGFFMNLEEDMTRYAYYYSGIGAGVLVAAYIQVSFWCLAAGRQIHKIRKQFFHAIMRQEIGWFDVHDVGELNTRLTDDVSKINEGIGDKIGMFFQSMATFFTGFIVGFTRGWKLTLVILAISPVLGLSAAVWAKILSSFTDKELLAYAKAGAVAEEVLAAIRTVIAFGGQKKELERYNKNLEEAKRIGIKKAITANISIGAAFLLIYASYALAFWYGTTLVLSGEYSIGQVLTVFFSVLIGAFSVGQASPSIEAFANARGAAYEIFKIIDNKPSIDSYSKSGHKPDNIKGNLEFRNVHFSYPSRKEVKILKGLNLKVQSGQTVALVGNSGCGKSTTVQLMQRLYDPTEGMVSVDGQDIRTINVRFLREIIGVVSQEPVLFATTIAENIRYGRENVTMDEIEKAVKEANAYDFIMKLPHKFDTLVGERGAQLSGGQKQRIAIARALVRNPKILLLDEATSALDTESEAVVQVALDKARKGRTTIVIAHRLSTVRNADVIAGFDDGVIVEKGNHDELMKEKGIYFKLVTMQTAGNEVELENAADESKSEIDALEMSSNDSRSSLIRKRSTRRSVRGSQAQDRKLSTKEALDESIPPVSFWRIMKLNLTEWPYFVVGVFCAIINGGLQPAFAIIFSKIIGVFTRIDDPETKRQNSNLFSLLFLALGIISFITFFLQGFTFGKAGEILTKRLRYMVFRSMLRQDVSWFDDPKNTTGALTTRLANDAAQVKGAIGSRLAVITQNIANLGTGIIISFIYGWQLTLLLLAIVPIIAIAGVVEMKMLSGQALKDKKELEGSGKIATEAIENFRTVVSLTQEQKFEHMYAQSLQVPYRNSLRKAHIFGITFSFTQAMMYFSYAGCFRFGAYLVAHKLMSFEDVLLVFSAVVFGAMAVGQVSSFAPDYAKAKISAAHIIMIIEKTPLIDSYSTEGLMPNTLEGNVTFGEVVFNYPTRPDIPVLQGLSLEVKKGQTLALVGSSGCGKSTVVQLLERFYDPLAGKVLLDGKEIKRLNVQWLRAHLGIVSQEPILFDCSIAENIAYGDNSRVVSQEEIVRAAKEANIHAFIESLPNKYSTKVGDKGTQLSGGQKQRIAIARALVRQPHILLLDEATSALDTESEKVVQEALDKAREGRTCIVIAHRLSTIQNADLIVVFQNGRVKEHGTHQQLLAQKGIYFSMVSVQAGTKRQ

Regarding `COc1ccc(C(CCCN2CCN(CCCOc3ccc4oc(=O)ccc4c3)CC2)c2ccc(OC)cc2)cc1` [Compound 32, 6-(3-(4-(4,4-Bis(4-methoxyphenyl)butyl)piperazin-1-yl)propoxy)-2H-chromen-2-one], in assay [1], the 50% effective concentration (EC50) is 4.53 ± 0.17 µM.
Consider `COc1ccc(C(CCCN2CCN(CCCCOc3ccc4ccc(=O)oc4c3)CC2)c2ccc(OC)cc2)cc1` [Compound 27, 7-(4-(4-(4,4-Bis(4-methoxyphenyl)butyl)piperazin-1-yl)butoxy)-2H-chromen-2-one], for which the half-maximal effective concentration (EC50) in assay [1] was 3.99 ± 0.11 µM. In addition, the “reduction of cellular viability” value in assay [2] was 30–50%.
